Measurements published in patent US20240165083A1, “TASIPIMIDINE FORMULATIONS AND USE THEREOF” (ORION CORPORATION, priority 2021, published 2024).

Assays:
Assay type in all cases: in vivo, dog
dogs = experiment: Clinical safety in the three clinical field studies in dogs; conditions: 30 μg/kg orally
Protocol: (§1) Three randomized, double-blind, placebo-controlled, clinical field studies were conducted for evaluating the effectiveness and clinical safety of tasipimidine for the treatment of situational anxiety and fear-based behaviors in dogs triggered by events such as travel, noise, or owner departure. Across all three studies dogs were randomized to receive either 0.03 mg/kg of tasipimidine (n=131) or placebo (n=133) orally at home by the owner. Assessments were made using video (in the case of when left alone or car travel) or by the caretaker present during the fear inducing incident (in the case of noise anxiety). Both were assessed using a numerical rating scale with scores 1-5.

[1] = tested on: client-owned dogs suffering from travel anxiety; experiment: Clinical field study in dogs: travel anxiety; conditions: single oral dose 30 μg/kg approximately 1 hour before car travel
Protocol: as §1
The third study was conducted in client-owned dogs suffering from travel anxiety. Dogs received a single dose of tasipimidine 30 μg/kg or placebo approximately 1 hour before car travel. The primary efficacy variable was the external observer's assessment of signs of anxiety and fear from video recordings. The owner assessed the treatment effect based on the dog's behavior during the first 10 minutes of car travel.

[2] = tested on: client-owned dogs suffering from separation anxiety; experiment: Clinical field study in dogs: separation anxiety; conditions: 30 μg/kg orally 1-3 times a day as needed, 5-7 days a week for 5 weeks
Protocol: as §1
The second study was conducted in client-owned dogs suffering from separation anxiety. Dogs received tasipimidine 30 μg/kg or placebo 1-3 times a day as needed 5-7 days a week for 5 weeks. The primary efficacy variable was the owner's assessment of the effect of the study treatment on acute anxiety related to the owner's departure. Dog owners assessed the effect of the study treatment on their dog's signs of separation anxiety from video recordings after returning home. The owner also took into account the signs of the dog's behavior during the separation (e.g., destruction and elimination) that were not visible in the video recording.

[3] = tested on: client-owned dogs with a history of acute anxiety and fear associated with noise due to fireworks; experiment: Clinical field study in dogs: noise anxiety (fireworks); conditions: 30 μg/kg orally 1-3 times as needed, New Year's Eve
Protocol: as §1
The first study was conducted in client-owned dogs with a history of acute anxiety and fear associated with noise due to fireworks. Dogs receive tasipimidine 30 μg/kg or placebo 1-3 times as needed with at least 3 hours between doses during New Year's Eve. The primary efficacy variable was the owner's assessment of the effect of study treatment on the dog's signs of acute anxiety and fear due to fireworks. The assessment was made once at least 2 hours after the last dose or at 1:00 A.M., whichever occurred later.

COc1cccc2c1CCOC2C1=NCCN1 (stereo not shown) [Tasipimidine, 2-(5-methoxyisochroman-1-yl)-4,5-dihydro-1H-imidazole]
marked ataxia or clinical sedation (dogs): did not produce marked ataxia or clinical sedation
treatment effect compared with placebo: external observer's assessment of signs of anxiety and fear from video recordings [1]: statistically significant treatment effect in favor of tasipimidine
treatment effect compared with placebo: owner's assessment of acute anxiety related to the owner's departure [2]: statistically significant treatment effect in favor of tasipimidine
treatment effect compared with placebo: owner's assessment of signs of acute anxiety and fear due to fireworks [3]: statistically significant treatment effect in favor of tasipimidine
